Data published in PubChem BioAssay AID248 (DTP/NCI, 2004).
Where “and” joins values, the source holds several entries; their conditions need not be identical. Identical values can stand only once. Inconclusive results and toxic doses are left out.

System: L1210 leukemia ip in BDF1 mice, survival T/C
Assay: NCI In Vivo Anticancer Drug Screen. Data for tumor model L1210 Leukemia (intraperitoneal) in B6D2F1 (BDF1) mice
Settings: endpoint: mean survival time, higher = longer survival
Method in brief: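 In this screen, tumor-bearing mice given compound are compared to those given vehicle, and their survival values are reported as a treated-to-control quotient.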

[1] = dose: 200.0 mg/kg/injection, schedule: Q01DX001 (ip), vehicle: carboxymethylcellulose (CMC)
[2] = dose: 200.0 mg/kg/injection, schedule: Q01DX001 (ip), vehicle: saline
[3] = dose: 400.0 mg/kg/injection, schedule: Q01DX001 (ip), vehicle: carboxymethylcellulose (CMC)
[4] = dose: 400.0 mg/kg/injection, schedule: Q01DX001 (ip), vehicle: saline
[5] = dose: 100.0 mg/kg/injection, schedule: Q01DX009 (ip), vehicle: saline with Tween-80
[6] = dose: 200.0 mg/kg/injection, schedule: Q01DX009 (ip), vehicle: saline with Tween-80

CSc1ncc(Br)c(Sc2nc(N)nc3nc[nH]c23)n1
T/C (dose: 0.25 mg/kg/injection, schedule: Q01DX Z (ip), vehicle: other): 107 % of control | T/C (dose: 0.5 mg/kg/injection, schedule: Q01DX Z (ip), vehicle: other): 103 % of control | T/C (dose: 1.0 mg/kg/injection, schedule: Q01DX Z (ip), vehicle: methylcellulose (MC)): 98 % of control | T/C (dose: 1.0 mg/kg/injection, schedule: Q01DX Z (ip), vehicle: other): 103 % of control | T/C (dose: 3.0 mg/kg/injection, schedule: Q01DX Z (ip), vehicle: carboxymethylcellulose (CMC)): 121 % of control | T/C (dose: 3.0 mg/kg/injection, schedule: Q01DX Z (ip), vehicle: methylcellulose (MC)): 97 % of control | T/C (dose: 6.0 mg/kg/injection, schedule: Q01DX Z (ip), vehicle: methylcellulose (MC)): 107 % of control | T/C (dose: 10.0 mg/kg/injection, schedule: Q01DX001 (ip), vehicle: saline with Tween-80): 156 % of control | T/C (dose: 12.0 mg/kg/injection, schedule: Q01DX001 (ip), vehicle: saline with Tween-80): 190 % of control | T/C (dose: 12.0 mg/kg/injection, schedule: Q01DX Z (ip), vehicle: carboxymethylcellulose (CMC)): 158 % of control | T/C (dose: 14.0 mg/kg/injection, schedule: Q01DX001 (ip), vehicle: saline with Tween-80): 200 % of control | T/C (dose: 19.0 mg/kg/injection, schedule: Q01DX001 (ip), vehicle: saline with Tween-80): 162 % of control | T/C (dose: 29.0 mg/kg/injection, schedule: Q01DX001 (ip), vehicle: saline): 244 % of control | T/C (dose: 30.0 mg/kg/injection, schedule: Q01DX001 (ip), vehicle: saline with Tween-80): 162 % of control | T/C (dose: 32.0 mg/kg/injection, schedule: Q01DX Z (ip), vehicle: other): 96 % of control | T/C (dose: 33.5 mg/kg/injection, schedule: Q01DX Z (ip), vehicle: carboxymethylcellulose (CMC)): 107 % of control | T/C (dose: 44.0 mg/kg/injection, schedule: Q01DX001 (ip), vehicle: saline with Tween-80): 164 % of control | T/C (dose: 45.0 mg/kg/injection, schedule: Q01DX001 (ip), vehicle: saline): 236 % of control | T/C (dose: 48.0 mg/kg/injection, schedule: Q01DX Z (ip), vehicle: carboxymethylcellulose (CMC)): 103 % of control | T/C (dose: 50.0 mg/kg/injection, schedule: Q01DX001 (ip), vehicle: carboxymethylcellulose (CMC)): 158 % of control | T/C (dose: 66.0 mg/kg/injection, schedule: Q01DX001 (ip), vehicle: saline): 101 % of control | T/C (dose: 100.0 mg/kg/injection, schedule: Q01DX001 (ip), vehicle: saline with Tween-80): 104 % of control | T/C (dose: 100.0 mg/kg/injection, schedule: Q01DX Z (ip), vehicle: methylcellulose (MC)): 91 % of control | T/C (dose: 150.0 mg/kg/injection, schedule: Q01DX001 (ip), vehicle: saline with Tween-80): 120 % of control | T/C (dose: 150.0 mg/kg/injection, schedule: Q01DX001 (ip), vehicle: saline): 105 % of control | T/C [1]: 103 % of control | T/C [2]: 122 % of control | T/C [3]: 94 % of control | T/C [4]: 99 % of control

C/C=C/C[n+]1c(C)ccc2ccccc21
T/C (dose: 12.5 mg/kg/injection, schedule: Q01DX001 (ip), vehicle: saline): 98 % of control | T/C (dose: 25.0 mg/kg/injection, schedule: Q01DX001 (ip), vehicle: saline): 96 % of control | T/C (dose: 50.0 mg/kg/injection, schedule: Q01DX001 (ip), vehicle: saline): 93 % of control

CC(C)CCCC(C)C1CCC2C3CC=C4CC(S)CCC4(C)C3CCC12C (stereo not given)
T/C (dose: 60.0 mg/kg/injection, schedule: Q04DX003 (sc), vehicle: steriod suspending solution): 100 % of control | T/C (dose: 120.0 mg/kg/injection, schedule: Q04DX003 (sc), vehicle: steriod suspending solution): 109 % of control | T/C (dose: 240.0 mg/kg/injection, schedule: Q04DX003 (sc), vehicle: steriod suspending solution): 105 % of control

COc1ccc(/C=C2\CCC3C(=O)CCCC3(C)C2=O)cc1 (stereo not given)
T/C (dose: 100.0 mg/kg/injection, schedule: Q01DX009 (ip), vehicle: saline): 95 % of control | T/C (dose: 100.0 mg/kg/injection, schedule: Q04DX003 (ip), vehicle: saline): 100 % of control | T/C (dose: 200.0 mg/kg/injection, schedule: Q01DX009 (ip), vehicle: saline): 104 % of control | T/C (dose: 200.0 mg/kg/injection, schedule: Q04DX003 (ip), vehicle: saline): 117 % of control | T/C (dose: 400.0 mg/kg/injection, schedule: Q01DX009 (ip), vehicle: saline): 101 % of control | T/C (dose: 400.0 mg/kg/injection, schedule: Q04DX003 (ip), vehicle: saline): 104 % of control

CCCC(=O)c1ccc2oc3ccccc3c2c1
T/C (dose: 100.0 mg/kg/injection, schedule: Q01DX009 (ip), vehicle: Klucel (hydroxypropylcellulose) (HPC)): 100 % of control | T/C (dose: 100.0 mg/kg/injection, schedule: Q04DX003 (ip), vehicle: Klucel (hydroxypropylcellulose) (HPC)): 102 % of control | T/C (dose: 200.0 mg/kg/injection, schedule: Q01DX009 (ip), vehicle: Klucel (hydroxypropylcellulose) (HPC)): 94 % of control | T/C (dose: 200.0 mg/kg/injection, schedule: Q04DX003 (ip), vehicle: Klucel (hydroxypropylcellulose) (HPC)): 102 % of control | T/C (dose: 400.0 mg/kg/injection, schedule: Q01DX009 (ip), vehicle: Klucel (hydroxypropylcellulose) (HPC)): 96 % of control | T/C (dose: 400.0 mg/kg/injection, schedule: Q04DX003 (ip), vehicle: Klucel (hydroxypropylcellulose) (HPC)): 98 % of control

CC(C)C(=O)Nc1cccc(O)c1
T/C [5]: 90 % of control | T/C [6]: 90 % of control

O=C(Nc1ccccc1C(F)(F)F)Nc1cccc2c(O)cccc12
T/C (dose: 100.0 mg/kg/injection, schedule: Q01DX001 (ip), vehicle: carboxymethylcellulose (CMC)): 93 % of control and 100 % of control | T/C (dose: 100.0 mg/kg/injection, schedule: Q01DX009 (ip), vehicle: carboxymethylcellulose (CMC)): 100 % of control and 91 % of control | T/C (dose: 100.0 mg/kg/injection, schedule: Q04DX002 (ip), vehicle: carboxymethylcellulose (CMC)): 86 % of control | T/C (dose: 100.0 mg/kg/injection, schedule: Q04DX003 (ip), vehicle: carboxymethylcellulose (CMC)): 88 % of control and 91 % of control | T/C [1]: 93 % of control and 89 % of control | T/C (dose: 200.0 mg/kg/injection, schedule: Q01DX009 (ip), vehicle: carboxymethylcellulose (CMC)): 100 % of control and 103 % of control | T/C (dose: 200.0 mg/kg/injection, schedule: Q04DX002 (ip), vehicle: carboxymethylcellulose (CMC)): 96 % of control and 89 % of control | T/C (dose: 200.0 mg/kg/injection, schedule: Q04DX003 (ip), vehicle: carboxymethylcellulose (CMC)): 97 % of control and 88 % of control | T/C [3]: 94 % of control and 90 % of control | T/C (dose: 400.0 mg/kg/injection, schedule: Q01DX009 (ip), vehicle: carboxymethylcellulose (CMC)): 96 % of control and 91 % of control | T/C (dose: 400.0 mg/kg/injection, schedule: Q04DX002 (ip), vehicle: carboxymethylcellulose (CMC)): 89 % of control and 90 % of control | T/C (dose: 400.0 mg/kg/injection, schedule: Q04DX003 (ip), vehicle: carboxymethylcellulose (CMC)): 97 % of control and 88 % of control

CCCC(=O)Nc1cccc2ccccc12
T/C (dose: 100.0 mg/kg/injection, schedule: Q04DX002 (ip), vehicle: Klucel (hydroxypropylcellulose) (HPC)): 117 % of control | T/C (dose: 200.0 mg/kg/injection, schedule: Q04DX002 (ip), vehicle: Klucel (hydroxypropylcellulose) (HPC)): 107 % of control

COP1(=O)CC=C(C)C1 (stereo not given)
T/C (dose: 100.0 mg/kg/injection, schedule: Q01DX001 (ip), vehicle: saline): 98 % of control | T/C [2]: 98 % of control | T/C [4]: 106 % of control

CSC12OCC(O1)C1OC(C)(C)OC(C=O)C1O2 (stereo not given)
T/C (dose: 50.0 mg/kg/injection, schedule: Q04DX002 (ip), vehicle: saline): 92 % of control | T/C (dose: 100.0 mg/kg/injection, schedule: Q04DX002 (ip), vehicle: saline): 95 % of control

CC(=O)OCCn1c(C)nc2cc(Cl)c(Cl)cc21
T/C (dose: 100.0 mg/kg/injection, schedule: Q04DX003 (ip), vehicle: acetone): 94 % of control | T/C (dose: 200.0 mg/kg/injection, schedule: Q04DX003 (ip), vehicle: acetone): 98 % of control | T/C (dose: 400.0 mg/kg/injection, schedule: Q04DX003 (ip), vehicle: acetone): 93 % of control

CO/C([O-])=N/S(=O)(=O)n1cc[n+](C)c1
T/C (dose: 75.0 mg/kg/injection, schedule: Q01DX009 (ip), vehicle: Klucel (hydroxypropylcellulose) (HPC)): 98 % of control | T/C (dose: 150.0 mg/kg/injection, schedule: Q01DX009 (ip), vehicle: Klucel (hydroxypropylcellulose) (HPC)): 86 % of control | T/C (dose: 300.0 mg/kg/injection, schedule: Q01DX009 (ip), vehicle: Klucel (hydroxypropylcellulose) (HPC)): 95 % of control

Cc1c(NC(=O)Nc2cccc(F)c2)c(=O)n(-c2ccccc2)n1C
T/C [5]: 101 % of control | T/C (dose: 100.0 mg/kg/injection, schedule: Q04DX003 (ip), vehicle: saline with Tween-80): 104 % of control | T/C [6]: 98 % of control | T/C (dose: 200.0 mg/kg/injection, schedule: Q04DX003 (ip), vehicle: saline with Tween-80): 104 % of control | T/C (dose: 400.0 mg/kg/injection, schedule: Q01DX009 (ip), vehicle: saline with Tween-80): 98 % of control | T/C (dose: 400.0 mg/kg/injection, schedule: Q04DX003 (ip), vehicle: saline with Tween-80): 101 % of control
